Test results: US12492188B2, “1H-benzo[D]imidazole derivatives as TLR9 inhibitors for the treatment of fibrosis” (BRISTOL-MYERS SQUIBB COMPANY, priority 2020, dated 2025)
pIC50: −log10 of the molar value. Like-named read-outs stand apart in the source and are kept apart here.

Tests used:
Assay type in all cases: cell-based
human TLR9 = target: T1, human TLR9 (Homo sapiens, UniProt Q9NR96); experiment: TLR9 inhibition reporter assay (HEK-Blue cells, secreted embryonic alkaline phosphatase reporter)
T1 construct: host or cells: HEK-Blue cells (HEK293-derived reporter line)
T1 sequence (Q9NR96 26-1032): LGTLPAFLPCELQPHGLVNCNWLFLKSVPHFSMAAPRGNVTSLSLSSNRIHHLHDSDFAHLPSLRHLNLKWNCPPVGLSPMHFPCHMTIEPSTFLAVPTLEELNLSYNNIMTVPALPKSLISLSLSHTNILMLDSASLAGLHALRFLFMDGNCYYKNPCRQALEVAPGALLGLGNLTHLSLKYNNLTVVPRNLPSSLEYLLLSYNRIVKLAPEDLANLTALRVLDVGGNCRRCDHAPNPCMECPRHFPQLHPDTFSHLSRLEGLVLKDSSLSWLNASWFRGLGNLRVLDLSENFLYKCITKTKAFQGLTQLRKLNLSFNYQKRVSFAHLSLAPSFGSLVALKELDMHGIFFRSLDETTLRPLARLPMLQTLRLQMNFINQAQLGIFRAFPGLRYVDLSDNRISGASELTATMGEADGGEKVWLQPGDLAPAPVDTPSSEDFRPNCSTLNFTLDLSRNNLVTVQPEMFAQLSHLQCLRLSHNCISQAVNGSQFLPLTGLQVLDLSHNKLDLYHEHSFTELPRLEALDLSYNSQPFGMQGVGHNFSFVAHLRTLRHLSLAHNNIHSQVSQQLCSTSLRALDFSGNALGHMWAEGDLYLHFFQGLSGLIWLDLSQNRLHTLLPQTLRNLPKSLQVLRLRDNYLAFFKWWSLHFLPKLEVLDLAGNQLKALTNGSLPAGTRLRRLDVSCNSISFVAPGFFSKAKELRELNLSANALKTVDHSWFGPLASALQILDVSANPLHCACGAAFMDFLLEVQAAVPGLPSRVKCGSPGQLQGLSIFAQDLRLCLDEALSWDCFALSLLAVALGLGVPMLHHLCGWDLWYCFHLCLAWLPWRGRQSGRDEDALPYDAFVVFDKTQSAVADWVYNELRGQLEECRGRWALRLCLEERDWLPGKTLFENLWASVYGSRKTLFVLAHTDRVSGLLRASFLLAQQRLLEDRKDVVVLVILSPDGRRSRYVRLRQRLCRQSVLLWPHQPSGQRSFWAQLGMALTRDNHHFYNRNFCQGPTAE
Procedure, shortened: (§1)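 Cells seeded at 15000 (TLR7), 20,000 (TLR8) or 25,000 (TLR9) per well; compound 0.05 nM–50 μM, 30 min RT pre-incubation. Agonists: gardiquimod 7.5 μM, R848 15.9 μM, ODN2006 5 nM respectively. 22 h, 37 °C; SEAP via HEK-Blue Detection; % inhibition vs agonist+DMSO and known-inhibitor wells.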

human TLR7 = target: T2, human TLR7 (Homo sapiens, UniProt Q9NYK1); experiment: TLR7 inhibition reporter assay (HEK-Blue cells, secreted embryonic alkaline phosphatase reporter); conditions: HEK-Blue cells overexpressing human TLR7, stimulated with gardiquimod 7.5 μM; read-out: TLR 7 IC50
T2 construct: host or cells: HEK-Blue cells (HEK293-derived reporter line)
T2 sequence (Q9NYK1 27-1049): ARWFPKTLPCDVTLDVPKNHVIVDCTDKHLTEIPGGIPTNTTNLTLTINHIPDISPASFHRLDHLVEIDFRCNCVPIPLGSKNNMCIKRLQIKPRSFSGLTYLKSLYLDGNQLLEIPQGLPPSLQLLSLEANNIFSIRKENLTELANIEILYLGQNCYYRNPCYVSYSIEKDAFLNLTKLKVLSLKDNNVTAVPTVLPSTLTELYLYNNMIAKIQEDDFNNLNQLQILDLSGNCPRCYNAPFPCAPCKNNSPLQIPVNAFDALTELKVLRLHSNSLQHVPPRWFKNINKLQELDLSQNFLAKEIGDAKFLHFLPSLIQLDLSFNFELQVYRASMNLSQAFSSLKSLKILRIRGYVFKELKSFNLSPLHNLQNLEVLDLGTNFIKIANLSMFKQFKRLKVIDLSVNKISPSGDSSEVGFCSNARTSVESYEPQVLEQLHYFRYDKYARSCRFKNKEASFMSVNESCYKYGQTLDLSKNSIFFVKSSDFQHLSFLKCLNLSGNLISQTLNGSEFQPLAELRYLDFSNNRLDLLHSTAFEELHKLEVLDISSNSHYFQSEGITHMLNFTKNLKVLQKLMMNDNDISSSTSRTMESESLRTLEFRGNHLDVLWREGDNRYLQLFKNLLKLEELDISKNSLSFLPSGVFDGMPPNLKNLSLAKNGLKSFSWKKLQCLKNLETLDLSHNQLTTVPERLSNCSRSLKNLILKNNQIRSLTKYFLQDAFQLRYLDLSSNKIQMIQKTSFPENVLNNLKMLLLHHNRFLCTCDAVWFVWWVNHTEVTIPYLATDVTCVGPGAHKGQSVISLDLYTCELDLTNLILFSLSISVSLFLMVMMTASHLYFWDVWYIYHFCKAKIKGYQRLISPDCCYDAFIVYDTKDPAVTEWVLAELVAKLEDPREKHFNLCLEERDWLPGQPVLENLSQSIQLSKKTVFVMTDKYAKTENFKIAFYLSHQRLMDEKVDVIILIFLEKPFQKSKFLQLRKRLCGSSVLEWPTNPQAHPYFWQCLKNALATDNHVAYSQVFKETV
Procedure, shortened: as §1

human TLR8 = target: T3, human TLR8 (Homo sapiens, UniProt Q9NR97); experiment: TLR8 inhibition reporter assay (HEK-Blue cells, secreted embryonic alkaline phosphatase reporter); conditions: HEK-Blue cells overexpressing human TLR8, stimulated with R848 15.9 μM; read-out: TLR 8 IC50
T3 construct: host or cells: HEK-Blue cells (HEK293-derived reporter line)
T3 sequence (Q9NR97 27-1041): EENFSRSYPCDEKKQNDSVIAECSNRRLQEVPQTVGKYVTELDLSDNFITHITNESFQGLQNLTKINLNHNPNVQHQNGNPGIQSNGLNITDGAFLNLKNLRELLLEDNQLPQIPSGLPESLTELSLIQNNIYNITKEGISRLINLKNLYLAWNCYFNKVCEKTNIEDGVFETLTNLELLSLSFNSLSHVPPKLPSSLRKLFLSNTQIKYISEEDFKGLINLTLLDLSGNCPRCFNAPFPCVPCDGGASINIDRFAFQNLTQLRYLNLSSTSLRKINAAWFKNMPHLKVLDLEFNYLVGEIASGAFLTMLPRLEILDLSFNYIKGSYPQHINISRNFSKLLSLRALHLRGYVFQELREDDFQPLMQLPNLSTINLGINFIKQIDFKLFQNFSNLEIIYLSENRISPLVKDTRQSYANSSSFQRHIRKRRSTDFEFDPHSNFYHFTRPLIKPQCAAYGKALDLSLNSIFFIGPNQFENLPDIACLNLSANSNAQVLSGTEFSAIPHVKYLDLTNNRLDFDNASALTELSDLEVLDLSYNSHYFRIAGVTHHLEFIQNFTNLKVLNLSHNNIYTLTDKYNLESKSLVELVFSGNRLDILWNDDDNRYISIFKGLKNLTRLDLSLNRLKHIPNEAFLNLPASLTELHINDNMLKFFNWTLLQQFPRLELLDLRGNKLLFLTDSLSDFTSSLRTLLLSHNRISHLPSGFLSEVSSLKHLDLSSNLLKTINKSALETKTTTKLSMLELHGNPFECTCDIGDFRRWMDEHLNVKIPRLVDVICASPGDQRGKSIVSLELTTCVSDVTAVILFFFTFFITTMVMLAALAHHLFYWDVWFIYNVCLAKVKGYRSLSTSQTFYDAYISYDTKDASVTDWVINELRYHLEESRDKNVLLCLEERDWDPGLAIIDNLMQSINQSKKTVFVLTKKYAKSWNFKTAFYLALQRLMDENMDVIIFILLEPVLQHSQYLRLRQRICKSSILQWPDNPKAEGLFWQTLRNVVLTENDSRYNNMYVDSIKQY
Procedure, shortened: as §1

[1] = HEK-Blue cells overexpressing human TLR9, stimulated with ODN2006 5 nM, read-out: TLR 9 IC50
[2] = HEK-Blue human TLR9 reporter cells
[3] = HEK-Blue cells overexpressing human TLR9, stimulated with ODN2006 5 nM, 22 hour incubation, reporter readout

| pIC50 (human TLR9; [1]) | pIC50 (human TLR9; [2]) | pIC50 (human TLR7) | pIC50 (human TLR8) | pIC50 (human TLR9; [3]) | pIC50 (human TLR9) | Structure (SMILES) |
| --- | --- | --- | --- | --- | --- | --- |
| 7.64 | 7.64 | 5.89 | < 4.30 | – | – | CS(=O)(=O)c1ccc(-c2nc3c(F)cc(C4CCN(C5CC6CCC(C5)N6C5CCC5)CC4)cc3n2C2CC2)cc1 (single isomer, unassigned) [Example 326, 6-(1-(8-cyclobutyl-8-azabicyclo[3.2.1]octan-3-yl)piperidin-4-yl)-1-cyclopropyl-4-fluoro-2-(4-(methylsulfonyl)phenyl)-1H-benzo[d]imidazole] |
| 7.68 | – | 6.52 | 6.05 | 7.68 | – | Cc1cc(-c2cc(F)cc(CN3CCC(N4CCCC4)CC3)c2)cc2c1nc(-c1ccc(S(C)(=O)=O)cc1)n2C [Example 405, 6-(3-fluoro-5-((4-(pyrrolidin-1-yl)piperidin-1-yl)methyl)phenyl)-1,4-dimethyl-2-(4-(methylsulfonyl)phenyl)-1H-benzo[d]imidazole] |
| – | – | 4.66 | < 4.30 | 7.22 | – | COc1ccc(-c2nc3c(C)cc(C4CCN(C5CC6(C5)CN(C(C)C)C6)CC4)cc3[nH]2)cc1OC [Example 12, 2-(3,4-dimethoxyphenyl)-6-(1-(2-isopropyl-2-azaspiro[3.3]heptan-6-yl)piperidin-4-yl)-4-methyl-1H-benzo[d]imidazole] |
| 7.16 | 7.16 | < 4.30 | < 4.30 | – | – | Cn1c(-c2ccc(S(C)(=O)=O)cc2)nc2ccc(C3CCN(C4CCCN(C5CCC5)CC4)CC3)c(F)c21 (centres unmarked) [Example 313, 6-(1-(1-cyclobutylazepan-4-yl)piperidin-4-yl)-7-fluoro-1-methyl-2-(4-(methylsulfonyl)phenyl)-1H-benzo[d]imidazole] |
| – | – | 5.82 | < 4.30 | 7.62 | – | Cc1cc(C2CCN(C3CCCN(C4CCC4)CC3)CC2)cc2c1nc(-c1ccc(S(C)(=O)=O)cc1)n2C (single isomer, unassigned) [Example 111, 6-(1-(1-cyclobutylazepan-4-yl)piperidin-4-yl)-1,4-dimethyl-2-(4-(methylsulfonyl)phenyl)-1H-benzo[d]imidazole] |
| 7.82 | 7.82 | 5.09 | < 4.30 | – | – | CS(=O)(=O)c1ccc(-c2nc3c(F)cc(C4CCN(C5CC6CCC(C5)N6CC5CC5)CC4)cc3n2C2CC2)cc1 (single isomer, unassigned) [Example 325, 1-cyclopropyl-6-(1-(8-(cyclopropylmethyl)-8-azabicyclo[3.2.1]octan-3-yl)piperidin-4-yl)-4-fluoro-2-(4-(methylsulfonyl)phenyl)-1H-benzo[d]imidazole] |
| – | – | 4.33 | < 4.30 | 7.10 | – | CC(C)N1C2CCC1CC(N1CCC(c3cc4c(cc3F)nc(-c3ccc(S(C)(=O)=O)cc3)n4C)CC1)C2 (single isomer, unassigned) [Example 97, 5-fluoro-6-(1-(8-isopropyl-8-azabicyclo[3.2.1]octan-3-yl)piperidin-4-yl)-1-methyl-2-(4-(methylsulfonyl)phenyl)-1H-benzo[d]imidazole] |
| 6.46 | – | 5.89 | 4.71 | 6.46 | – | CN(C)C1CCN(Cc2ccc(-c3ccc4nc(-c5cccc(F)c5)n(C)c4c3)cc2)CC1 [Example 377, 1-(4-(2-(3-fluorophenyl)-1-methyl-1H-benzo[d]imidazol-6-yl)benzyl)-N,N-dimethylpiperidin-4-amine] |
| 5.58 | – | < 4.30 | < 4.30 | – | 5.59 | CC(C)CN1C2CCC1CC(N1CCC(c3ccc4c(nc(-c5ccc(S(C)(=O)=O)cc5)n4C)c3F)CC1)C2 (single isomer, unassigned) [Example 190, 4-fluoro-5-(1-(8-isobutyl-8-azabicyclo[3.2.1]octan-3-yl)piperidin-4-yl)-1-methyl-2-(4-(methylsulfonyl)phenyl)-1H-benzo[d]imidazole] |
| 6.74 | 6.74 | 4.91 | < 4.30 | – | – | Cc1cc(C2CCN(C3CCCN(C4COC4)CC3)CC2)cc2c1nc(-c1ccc(S(C)(=O)=O)cc1)n2C (centres unmarked) [Example 304, 1,4-dimethyl-2-(4-(methylsulfonyl)phenyl)-6-(1-(1-(oxetan-3-yl)azepan-4-yl)piperidin-4-yl)-1H-benzo[d]imidazole] |
| 7.26 | 7.26 | 5.64 | < 4.30 | – | – | CC(C)N1CCCC(N2CCC(c3cc(F)c4nc(-c5ccc(S(C)(=O)=O)cc5)n(C)c4c3)CC2)CC1 (single isomer, unassigned) [Example 294, 4-fluoro-6-(1-(1-isopropylazepan-4-yl)piperidin-4-yl)-1-methyl-2-(4-(methylsulfonyl)phenyl)-1H-benzo[d]imidazole] |
